Data published in patent publication US20130102081A1, “Detection and Characterization of Protein Degradation, Protein Degradation Modulation and Protein Degradation Modulators” (priority 2011, published 2013).

molecular target: T1, trypsin (Bos taurus, UniProt P00760); assay: EMR spectroscopy of spin-labeled BSA degradation by the protease trypsin, with and without modulators; type: biochemical; conditions: EMR peak height versus time, compared with protease alone
T1 construct: gene PRSS1
T1 sequence (P00760 24-246): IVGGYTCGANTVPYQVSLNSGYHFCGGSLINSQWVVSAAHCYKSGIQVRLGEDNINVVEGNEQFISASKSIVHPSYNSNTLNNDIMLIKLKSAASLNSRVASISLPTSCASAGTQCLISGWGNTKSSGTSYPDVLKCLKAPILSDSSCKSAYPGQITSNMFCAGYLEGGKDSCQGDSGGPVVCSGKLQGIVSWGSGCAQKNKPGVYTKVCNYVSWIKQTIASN
Text: The spin label is attached to a protein and the control or un-degraded protein EMR spectrum recorded. Degradation of the protein by any degradation mechanism creates products with predictably different angular mobility than that of the control. […] Degradation is further characterized through quantitative analysis of the product and reactant subpopulations. Modulation of that degradation, regardless of the mechanism of modulation, can be expressed in a variety of ways, only one of which is an alteration in concentration of the degradation subpopulations. For example, inhibition of degradation is expressed by a reduction in concentration of relatively mobile subpopulation(s), degradation promotion by an increase in the mobile subpopulation. Chemical, biochemical and biological entities are readily tested for their potential as modulators.
Shown are EMR spectra of spin-labeled bovine serum albumin (BSA, spin label attached to BSA under conditions which favor attachment to a sulfhydryl). Key features of the intact protein's spectrum are denoted by the numbers 1 and 5. At 7, 21 and 40 minutes (spectra 2, 3 and 4 respectively) following the addition of the protease, trypsin, a second, more mobile, product population appears, characterized by three, relatively sharp peaks superimposed on the spectrum of the intact protein. Protein degradation is clearly expressed with products expressing more rapid angular mobility than reactants. Both reactant and product subpopulations are apparent in the spectra with the growth of the product population matched by a concomitant loss of reactants. Subpopulation spectra are amenable to further analyses in accord with practices associated with the selected observation method.
Shown are four EMR spectra (6, 7, 8, 9) for conditions identical to those in FIG. 1 of 5 with the exception that trypsin inhibitor is present. The presence and action of the modulator is clear and unambiguous.
Shown is the concentration of products, as reflected in the heights of the rightmost peaks labeled 1, 2, 3, and 4 in FIG. 1 of 5, versus time. […]

Compound | modulation of protein degradation (time course of appearance of the mobile product subpopulation)
Cc1c(O)cccc1C(=O)N[C@@H](CSc1ccccc1)[C@H](O)CN1C[C@H]2CCCC[C@H]2C[C@H]1C(=O)NC(C)(C)C [Nelfinavir] | promotion of degradation
CC(C)C[C@H](NC(=O)[C@@H](NC(=O)N[C@@H](Cc1ccccc1)C(=O)O)[C@@H]1CCN=C(N)N1)C(=O)N[C@H](C=O)Cc1ccccc1 [chymostatin] | Modulation of protein degradation is clear
leupeptin hemisulfate | Modulation of protein degradation is clear
